Here are results for 18 molecules from patent US20120115845A1, “THERAPEUTIC AGENTS” (priority 2007, published 2012).

The target of test [1] is T1, human GHS receptor (Homo sapiens, UniProt Q92847). The test is described as follows: h bind IC50 (binding assay, Table 1). Particulars: human receptor; Table 1.
Test [2] has as its target T1, human GHS receptor. The test is described as follows: Ghrelin IP1 agonist assay (IP1 HTRF). Type of test: cell-based. Further details: expressed in transfected cells; host or cells: HEK293s. Particulars: for Emax: 2 h, agonist effect as % maximal effect of GHRP-6 (5 μM), read-out: h IP1 ag %; for EC50: HEK293s cells stably expressing human GHS receptor, 2 hours at 37° C., read-out: h IP1 ag EC50. Put shortly:
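Cells: HEK293s stably expressing human GHS receptor, in stimulation buffer containing 0.02% fatty acid free BSA.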
A general note: TR-FRET usually uses a lanthanide donor and a delayed reading to cut background.

T1 sequence (Q92847 whole entry): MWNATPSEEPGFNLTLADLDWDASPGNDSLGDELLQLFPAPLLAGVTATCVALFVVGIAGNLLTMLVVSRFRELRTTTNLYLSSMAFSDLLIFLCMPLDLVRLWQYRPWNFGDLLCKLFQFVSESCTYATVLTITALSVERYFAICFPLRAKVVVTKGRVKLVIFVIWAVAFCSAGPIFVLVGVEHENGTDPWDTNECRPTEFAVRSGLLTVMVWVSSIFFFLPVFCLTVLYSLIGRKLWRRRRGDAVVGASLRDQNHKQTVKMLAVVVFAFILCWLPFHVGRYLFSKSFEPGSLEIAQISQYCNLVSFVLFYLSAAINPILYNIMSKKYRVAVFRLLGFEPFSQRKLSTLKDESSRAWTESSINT

In general, IC50 refers to the concentration that gives 50% inhibition. Lower therefore signals greater potency in that assay. In general, EC50 refers to the concentration at which the effect is half-maximal. `CS(=O)(=O)c1ccc2nc(NC(=O)NC(=O)c3cc(OC4CCNC4)ccc3Cl)sc2c1` (centres unmarked) [Example 249, 2-chloro-N-(6-(methylsulfonyl)benzo[d]thiazol-2-ylcarbamoyl) 5-(pyrrolidin-3-yloxy)benzamide] yielded a 50% inhibitory concentration (IC50) at human GHS receptor [1] of 8080 nM. Besides, at human GHS receptor [2], the Emax turned out to be 3.13% and the EC50 stood at 4900 nM.

For `CN1CCC(Oc2ccc(Cl)c(C(=O)NC(=O)Nc3nc4ccc(S(C)(=O)=O)cc4s3)c2)C1` (centres unmarked) [Example 250, 2-chloro-5-(1-methylpyrrolidin-3-yloxy)-N-(6-(methylsulfonyl)benzo[d]thiazol-2-ylcarbamoyl) benzamide], the concentration for half-maximal inhibition (IC50) on human GHS receptor [1] was 3780 nM. On human GHS receptor [2], the Emax turned out to be 6.82% and the concentration giving a half-maximal response (EC50) amounted to 5130 nM.

As to `CN(C)c1cccc(-c2ccc(Cl)c(C(=O)NC(=O)Nc3nc4ccc(S(C)(=O)=O)cc4s3)c2)n1` [Example 251, 2-chloro-5-(6-(dirnethylamino)pyridin-2-yl)-N-(6-(methylsulfonyl)benzo[d]thiazol-2-ylcarbamoyl) benzamide], at human GHS receptor [1], the IC50 is 34.4 nM. On human GHS receptor [2], the Emax was found to be 0% and the half-maximal effective concentration (EC50) was at least 20000 nM.

`CC(C)(C)OC(=O)N1CC(Oc2ccc(Cl)c(C(=O)NC(=O)Nc3nc4ccc(S(C)(=O)=O)cc4s3)c2)C1` [Example 252, tert-buty 3-(4-chloro-3-(6-(methylsulfonyl)benzo[d]thiazol-2-ylcarbamoyl-carbamoyl)phenoxy)azetidine-1-carboxylate] came in with a half-inhibitory concentration (IC50) at human GHS receptor [1] of 18.7 nM. Also, on human GHS receptor [2], the Emax turned out to be 1% and the concentration giving a half-maximal response (EC50) stood at 27.7 nM.

Consider `CS(=O)(=O)c1ccc2nc(NC(=O)NC(=O)c3cc(OC4CNC4)ccc3Cl)sc2c1` [Example 253, 5-(azetidin-3-yloxy)-2-chloro-N-(6-(methylsulfonyl)benzo[d]thiazol-2-ylcarbamoyl) benzamide], for which the half-inhibitory concentration (IC50) at human GHS receptor [1] turned out to be 7600 nM. Moreover, at human GHS receptor [2], the Emax was 5.84% and the EC50 stood at 4970 nM.

In turn, `CN1CCC(S(=O)(=O)c2ccc3nc(NC(=O)NC(=O)c4cc(-n5cccn5)c(F)cc4Cl)sc3c2)CC1` [Example 254, 2-chloro-4-fluoro-N-(6-(1-methylpiperidin-4-ylsulfonyl)benzo [d]thiazol-2-ylcarbamoyl)-5-(1H-pyrazol-1-yl)benzamide] returned a half-maximal inhibitory concentration (IC50) at human GHS receptor [1] of 5.69 nM. Moreover, at human GHS receptor [2], the Emax is 0% and the concentration for a half-maximal effect (EC50) was at least 20000 nM.

On to `COc1cc(Cl)c(C(=O)NC(=O)Nc2nc3ccc(S(=O)(=O)C4CCN(C)CC4)cc3s2)cc1N1CCOCC1` [Example 255, 2-chloro-4-methoxy-N-(6-(1-methylpiperidin-4-ylsulfonyl)benzo [d]thiazol-2-ylcarbamoyl)-5-morpholino-benzamide], for which, at human GHS receptor [1], the IC50 amounted to 7.91 nM. Further, at human GHS receptor [2], the Emax is 80.9% and the EC50 is at least 20000 nM.

On human GHS receptor [1], `CCOc1cc(C(=O)NC(=O)Nc2nc3ccc(S(=O)(=O)C4CCN(C)CC4)cc3s2)c(Cl)cc1OC` [Example 256, 2-chloro-5-ethoxy-4-methoxy-N-(6-(1-methylpiperidin-4-ylsulfonyl)benzo [d]thiazol-2-ylcarbamoyl) benzamide] returned a 50% inhibitory concentration (IC50) of 58.9 nM. Also, at human GHS receptor [2], the Emax came out at 0% and the EC50 was at least 20000 nM.

`CN1CC(Oc2ccc(Cl)c(C(=O)NC(=O)Nc3nc4ccc(S(C)(=O)=O)cc4s3)c2)C1` [Example 257, 2-chloro-5-(1-methylazetidin-3-yloxy)-N-(6-(methylsulfonyl)benzo[d]thiazol-2-ylcarbamoyl) benzamide]: the concentration for half-maximal inhibition (IC50) at human GHS receptor [1] came out at 846 nM. Moreover, at human GHS receptor [2], the Emax amounted to 13.1% and the concentration giving a half-maximal response (EC50) was at least 20000 nM.

Turning to `CN1CCC(S(=O)(=O)c2ccc3nc(NC(=O)NC(=O)c4cc(N5CCOCC5)c(Cl)cc4Cl)sc3c2)CC1` [Example 258, 2,4-dichloro-N-(6-(1-methylpiperidin-4-ylsulfonyl)benzo[d]thiazol-2-ylcarbamoyl)-5-morpholino-benzamide], the IC50 on human GHS receptor [1] was 10.5 nM. In addition, on human GHS receptor [2], the Emax was determined as 2.45% and the concentration for a half-maximal effect (EC50) came out at 3340 nM.

Molecule `CN1CCC(S(=O)(=O)c2ccc3nc(NC(=O)NC(=O)c4cc(-n5cccn5)c(Cl)cc4Cl)sc3c2)CC1` [Example 259, 2,4-dichloro-N-(6-(1-methylpiperidin-4-ylsulfonyl)benzo [d]thiazol-2-ylcarbamoyl)-5-(1H-pyrazol-1-yl)benzamide] gave an IC50 at human GHS receptor [1] of 5.03 nM. In addition, on human GHS receptor [2], the Emax came out at 0.653% and the EC50 was at least 20000 nM.

The molecule `Cc1cc(Cl)c(C(=O)NC(=O)Nc2nc3ccc(S(=O)(=O)C4CCN(C)CC4)cc3s2)cc1-n1cccn1` [Example 260, 2-chloro-4-methyl-N-(6-(1-methylpiperidin-4-ylsulfonyl)benzo [d]thiazol-2-ylcarbamoyl)-5-(1H-pyrazol-1-yl)benzamide] registered a half-inhibitory concentration (IC50) on human GHS receptor [1] of 5.78 nM. Also, on human GHS receptor [2], the Emax was found to be 1.52% and the EC50 came to 9230 nM.

At human GHS receptor [1], `CCOc1cc(Cl)c(C(=O)NC(=O)Nc2nc3ccc(S(=O)(=O)C4CCN(C)CC4)cc3s2)cc1-n1cccn1` [Example 261, 2-chloro-4-ethoxy-N-(6-(1-methylpiperidin-4-ylsulfonyl)benzo [d]thiazol-2-ylcarbamoyl)-5-(1H-pyrazol-1-yl)benzamide] came in with an IC50 of 0.93 nM. Besides, at human GHS receptor [2], the Emax is 0% and the half-maximal effective concentration (EC50) was at least 20000 nM.

In turn, `COc1cc(Cl)c(C(=O)NC(=O)Nc2nc3ccc(S(=O)(=O)C4CCN(C(=O)OC(C)(C)C)CC4)cc3s2)cc1-n1cccn1` [Example 262, tert-butyl4-(2-(3-(2-chloro-4-methoxy-5-(1H-pyrazol-1-yl)benzoyl)ureido)benzo[d]thiazol-6-ylsulfonyl) piperidine-1-carboxylate] registered a concentration for half-maximal inhibition (IC50) on human GHS receptor [1] of 34.3 nM. On human GHS receptor [2], the Emax was 0% and the EC50 was at least 20000 nM.

Take `COc1cc(Cl)c(C(=O)NC(=O)Nc2nc3ccc(S(=O)(=O)C4CCN(C)CC4)cc3s2)cc1-n1cccn1` [Example 264, 2-chloro-4-methoxy-N-(6-(1-methylpiperidin-4-ylsulfonyl)benzo [d]thiazol-2-ylcarbamoyl) 5-(1H-pyrazol-1-yl)benzamide]: the IC50 at human GHS receptor [1] turned out to be 4.43 nM. In addition, on human GHS receptor [2], the Emax was determined as 0% and the half-maximal effective concentration (EC50) was at least 20000 nM.

On human GHS receptor [1], `COc1cc(Cl)c(C(=O)NC(=O)Nc2nc3ccc(S(=O)(=O)C4CCN(C)CC4)cc3s2)cc1-n1nccc1C` [Example 265, 2-chloro-4-methoxy-5-(5-methyl-1H-pyrazol-1-yl)-N-(6-(1-methylpiperidin-4-ylsulfonyl)benzo [d]thiazol-2-ylcarbamoyl) benzamide] had a half-inhibitory concentration (IC50) of 29.6 nM. Also, the Emax at human GHS receptor [2] was found to be 0%.

Molecule `CN(C)Cc1ccc(Cl)c(C(=O)NC(=O)Nc2nc3ccc(S(C)(=O)=O)cc3s2)c1` [Example 266, 2-chloro-5-((dimethylamino)methyl)-N-(6-(methylsulfonyl)benzo[d]thiazol-2-ylcarbamoyl) benzamide] returned an IC50 on human GHS receptor [1] of 4940 nM. At human GHS receptor [2], the Emax was 6% and the EC50 was at least 20000 nM.

Molecule `CN(C)C1CCCN(c2ccc(Cl)c(C(=O)NC(=O)Nc3nc4ccc(S(C)(=O)=O)cc4s3)c2)C1` (centres unmarked) [Example 268, 2-Chloro-5-(3-dimethylamino-1-piperidyl)-N-[(6-methylsulfonyl-1,3-benzothiazol-2-yl)carbamoyl]benzamide] showed an IC50 on human GHS receptor [1] of 965 nM. Also, on human GHS receptor [2], the Emax turned out to be 11.3% and the 50% effective concentration (EC50) worked out at 7320 nM.
